# Assay results taken from PubChem BioAssay AID330 (DTP/NCI, 2004).
# “And” between values parts separate entries of the source, which are not always exact repeats. Equal entries are not always repeated. Toxic doses and inconclusive results are not listed. Numbered stars: 1 amine (or outer) side, 2 acyl side, 3 side chain; on linkers, the order of the positions; unused ones are H or OH. Bridge positions count the residues as written; N and C are the ends. Square brackets hold non-standard residues; d marks the D form. Peptide text beside a SMILES is read from it. * marks the point of attachment. ξ: configuration not given here. ξOrn(4,5-diOH) = O=C(C(CC(O)C(O)N[*:3])N[*:1])[*:2]; ξhTyr(βξ-OH,γξ-OH) = NC(C(=O)O)C(O)C(O)c1ccc(O)cc1; ξPro(3ξ-OH,4ξ-Me) = CC1CNC(C(=O)O)C1O; X22 = CCCCC/C=C/C/C=C\CCCCCCCC(=O)*; Hyp = O=C(O)[CH]1C[CH](O)CN1
# Tested on: P388 leukemia ip, CD2F1 mice, survival T/C
# Assay: NCI In Vivo Anticancer Drug Screen. Data for tumor model P388 Leukemia (intraperitoneal) in CD2F1 (CDF1) mice
# Settings: endpoint: median survival time, higher = longer survival
# Procedure, shortened: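 Mice carrying the transplanted tumor received test compound or vehicle. Survival was recorded in each group, and the value is the treated-group measurement divided by that of the vehicle-treated control group.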
# [1] = dose: 12.5 mg/kg/injection, schedule: Q01DX005 (ip), vehicle: Klucel (hydroxypropylcellulose) (HPC)
# [2] = dose: 25.0 mg/kg/injection, schedule: Q01DX005 (ip), vehicle: Klucel (hydroxypropylcellulose) (HPC)
# [3] = dose: 50.0 mg/kg/injection, schedule: Q01DX005 (ip), vehicle: Klucel (hydroxypropylcellulose) (HPC)
# [4] = dose: 100.0 mg/kg/injection, schedule: Q01DX005 (ip), vehicle: Klucel (hydroxypropylcellulose) (HPC)
# [5] = dose: 200.0 mg/kg/injection, schedule: Q01DX005 (ip), vehicle: Klucel (hydroxypropylcellulose) (HPC)
# [6] = dose: 50.0 mg/kg/injection, schedule: Q01DX005 (ip), vehicle: saline with Tween-80
# [7] = dose: 50.0 mg/kg/injection, schedule: Q01DX009 (ip), vehicle: saline with Tween-80
# [8] = dose: 100.0 mg/kg/injection, schedule: Q01DX005 (ip), vehicle: saline with Tween-80
# [9] = dose: 100.0 mg/kg/injection, schedule: Q01DX009 (ip), vehicle: saline with Tween-80
# [10] = dose: 12.5 mg/kg/injection, schedule: Q01DX009 (ip), vehicle: saline
# [11] = dose: 25.0 mg/kg/injection, schedule: Q01DX009 (ip), vehicle: saline
# [12] = dose: 50.0 mg/kg/injection, schedule: Q01DX009 (ip), vehicle: Klucel (hydroxypropylcellulose) (HPC)
# [13] = dose: 100.0 mg/kg/injection, schedule: Q01DX009 (ip), vehicle: Klucel (hydroxypropylcellulose) (HPC)
# [14] = dose: 200.0 mg/kg/injection, schedule: Q01DX009 (ip), vehicle: Klucel (hydroxypropylcellulose) (HPC)
# [15] = dose: 50.0 mg/kg/injection, schedule: Q01DX005 (ip), vehicle: saline
# [16] = dose: 60.0 mg/kg/injection, schedule: Q01DX005 (ip), vehicle: saline with Tween-80
# [17] = dose: 120.0 mg/kg/injection, schedule: Q01DX005 (ip), vehicle: saline with Tween-80
# [18] = dose: 240.0 mg/kg/injection, schedule: Q01DX005 (ip), vehicle: saline with Tween-80
smiles,measurement,setting,value
CC1CC(C)N(C)C(C)C1 (configuration not stated),T/C,"dose: 15.0 mg/kg/injection, schedule: Q01DX005 (ip), vehicle: saline",103 % of control
same,T/C,"dose: 30.0 mg/kg/injection, schedule: Q01DX005 (ip), vehicle: saline",99 % of control
same,T/C,"dose: 60.0 mg/kg/injection, schedule: Q01DX005 (ip), vehicle: saline",104 % of control
CCNC(=O)c1nnn2c1nc(N)c1cc(Cl)ccc12,T/C,[1],96 % of control
same,T/C,[2],96 % of control
same,T/C,[3],95 % of control
same,T/C,[4],94 % of control
same,T/C,[5],88 % of control
CCC1NC(C)(C)CC1=C(C)C (configuration not stated),T/C,"dose: 6.25 mg/kg/injection, schedule: Q04DX003 (ip), vehicle: saline",105 % of control
same,T/C,"dose: 12.5 mg/kg/injection, schedule: Q04DX003 (ip), vehicle: saline",110 % of control
same,T/C,"dose: 25.0 mg/kg/injection, schedule: Q04DX003 (ip), vehicle: saline",110 % of control
c1ccc2c(c1)C1CCC2[n+]2ccccc21 (configuration not stated),T/C,"dose: 6.25 mg/kg/injection, schedule: Q01DX005 (ip), vehicle: Klucel (hydroxypropylcellulose) (HPC)",108 % of control
same,T/C,[1],106 % of control
same,T/C,[2],110 % of control
CS(=O)(=O)OCCBr,T/C,"dose: 12.5 mg/kg/injection, schedule: Q01DX009 (ip), vehicle: saline with Tween-80",105 % of control
same,T/C,"dose: 25.0 mg/kg/injection, schedule: Q01DX005 (ip), vehicle: saline with Tween-80",108 % of control
same,T/C,"dose: 25.0 mg/kg/injection, schedule: Q01DX009 (ip), vehicle: saline with Tween-80",105 % of control
same,T/C,[6],110 % of control
same,T/C,[7],114 % of control
same,T/C,"dose: 100.0 mg/kg/injection, schedule: Q01DX001 (ip), vehicle: saline with Tween-80",103 % of control
same,T/C,[8],106 % of control
same,T/C,[9],116 % of control
CCn1c2ccc(C(=O)CCCN3CCCCC3)cc2c2cc(C(=O)CCCN3CCCCC3)ccc21,T/C,"dose: 6.25 mg/kg/injection, schedule: Q01DX009 (ip), vehicle: saline",100 % of control
same,T/C,[10],103 % of control and 113 % of control and 97 % of control
same,T/C,[11],102 % of control and 121 % of control and 122 % of control
Nc1ccc2nc3cc4c5ccccc5c(=O)c5cccc(c54)n3c(=O)c2c1,T/C,"dose: 50.0 mg/kg/injection, schedule: Q01DX005 (ip), vehicle: Klucel + Tween-80",104 % of control
Cn1ncc2c(=O)[nH]cnc21,T/C,[12],93 % of control
same,T/C,[13],93 % of control
same,T/C,[14],96 % of control
same,T/C,"dose: 400.0 mg/kg/injection, schedule: Q01DX009 (ip), vehicle: Klucel (hydroxypropylcellulose) (HPC)",97 % of control
"CCCCC/C=C/C/C=C\CCCCCCCC(=O)NC1CC(O)C(O)NC(=O)C2C(O)C(C)CN2C(=O)C(C(C)O)NC(=O)C(C(O)C(O)c2ccc(O)cc2)NC(=O)C2CC(O)CN2C(=O)C(C(C)O)NC1=O (stereo not drawn) (X22-[ξOrn(4,5-diOH)]T[Hyp][ξhTyr(βξ-OH,γξ-OH)]T[ξPro(3ξ-OH,4ξ-Me)]; lactam 1-C; configuration not given here)",T/C,"dose: 0.25 mg/kg/injection, schedule: Q01DX009 (ip), vehicle: lactate",100 % of control
same,T/C,"dose: 0.5 mg/kg/injection, schedule: Q01DX009 (ip), vehicle: lactate",104 % of control
O=N[O-].[Co].[NH2-].[NH2-].[NH2-].[NH2-].[NH2-],T/C,[10],90 % of control
same,T/C,[11],95 % of control
same,T/C,"dose: 50.0 mg/kg/injection, schedule: Q01DX009 (ip), vehicle: saline",95 % of control
O=C(Nc1ccccc1)C1(c2ccccc2)CCCCC1,T/C,[2],101 % of control
same,T/C,[3],99 % of control
same,T/C,[4],100 % of control
same,T/C,[5],93 % of control
O=[N+]([O-])c1cc(Br)c2c(c1)CCN2,T/C,"dose: 25.0 mg/kg/injection, schedule: Q01DX009 (ip), vehicle: distilled water + Tween-80",98 % of control
same,T/C,"dose: 50.0 mg/kg/injection, schedule: Q01DX009 (ip), vehicle: distilled water + Tween-80",100 % of control
same,T/C,"dose: 100.0 mg/kg/injection, schedule: Q01DX009 (ip), vehicle: distilled water + Tween-80",97 % of control
same,T/C,"dose: 200.0 mg/kg/injection, schedule: Q01DX009 (ip), vehicle: distilled water + Tween-80",103 % of control
same,T/C,"dose: 400.0 mg/kg/injection, schedule: Q01DX009 (ip), vehicle: distilled water + Tween-80",116 % of control
CCN(CC)CCSCCCNc1cc(OC)cc2cccnc12,T/C,"dose: 12.5 mg/kg/injection, schedule: Q01DX005 (ip), vehicle: saline",93 % of control
same,T/C,"dose: 25.0 mg/kg/injection, schedule: Q01DX005 (ip), vehicle: saline",88 % of control
same,T/C,[15],95 % of control and 98 % of control
C(=Nc1ccccc1)C1CCCC[N-]1.C(=Nc1ccccc1)C1CCCC[N-]1.[Cu+2].[O-][Cl+3]([O-])([O-])O (configuration not stated),T/C,"dose: 4.5 mg/kg/injection, schedule: Q01DX009 (ip), vehicle: saline with Tween-80",90 % of control
same,T/C,"dose: 9.0 mg/kg/injection, schedule: Q01DX009 (ip), vehicle: saline with Tween-80",97 % of control
same,T/C,"dose: 18.0 mg/kg/injection, schedule: Q01DX009 (ip), vehicle: saline with Tween-80",97 % of control
same,T/C,"dose: 18.75 mg/kg/injection, schedule: Q01DX009 (ip), vehicle: saline with Tween-80",97 % of control
same,T/C,[7],96 % of control
O=[N+]([O-])c1cccc2c1ccc1nonc12,T/C,[6],99 % of control
same,T/C,[8],94 % of control
same,T/C,"dose: 200.0 mg/kg/injection, schedule: Q01DX005 (ip), vehicle: saline with Tween-80",97 % of control
Brc1ccc(Oc2ccc(Br)cc2)cc1,T/C,[12],100 % of control
same,T/C,[13],98 % of control
same,T/C,[14],92 % of control
CCN(CC)Cc1cc(C)c(O)c(N=Nc2ccc3c(c2)c2ccccc2n3CC)c1C,T/C,[7],102 % of control
same,T/C,[9],110 % of control
same,T/C,"dose: 200.0 mg/kg/injection, schedule: Q01DX009 (ip), vehicle: saline with Tween-80",101 % of control
CN(C)CCCSc1nnc(-c2ccc3c(c2)OCO3)o1,T/C,"dose: 50.0 mg/kg/injection, schedule: Q04DX002 (ip), vehicle: water",106 % of control
same,T/C,"dose: 100.0 mg/kg/injection, schedule: Q04DX002 (ip), vehicle: water",100 % of control
same,T/C,"dose: 200.0 mg/kg/injection, schedule: Q04DX002 (ip), vehicle: water",101 % of control
c1ccc(SNSc2ccccc2)cc1,T/C,"dose: 100.0 mg/kg/injection, schedule: Q04DX003 (ip), vehicle: Klucel (hydroxypropylcellulose) (HPC)",103 % of control
same,T/C,"dose: 200.0 mg/kg/injection, schedule: Q04DX003 (ip), vehicle: Klucel (hydroxypropylcellulose) (HPC)",101 % of control
same,T/C,"dose: 400.0 mg/kg/injection, schedule: Q04DX003 (ip), vehicle: Klucel (hydroxypropylcellulose) (HPC)",106 % of control
CC1=N[C@@H](N2CCOCC2)[C@H](N2CCOCC2)N1c1ccccc1,T/C,[15],100 % of control
same,T/C,"dose: 100.0 mg/kg/injection, schedule: Q01DX005 (ip), vehicle: saline",107 % of control
same,T/C,"dose: 200.0 mg/kg/injection, schedule: Q01DX005 (ip), vehicle: saline",102 % of control
C(=C\c1cc2cc(C3=NCCN3)ccc2o1)/c1cc2cc(C3=NCCN3)ccc2o1,T/C,"dose: 25.0 mg/kg/injection, schedule: Q04DX003 (ip), vehicle: suspension in saline",154 % of control
same,T/C,"dose: 50.0 mg/kg/injection, schedule: Q04DX003 (ip), vehicle: suspension in saline",152 % of control
same,T/C,"dose: 100.0 mg/kg/injection, schedule: Q04DX003 (ip), vehicle: suspension in saline",101 % of control
CCn1c(=O)oc2ccc(Br)cc21,T/C,"dose: 100.0 mg/kg/injection, schedule: Q04DX002 (ip), vehicle: Klucel (hydroxypropylcellulose) (HPC)",100 % of control
same,T/C,"dose: 200.0 mg/kg/injection, schedule: Q04DX002 (ip), vehicle: Klucel (hydroxypropylcellulose) (HPC)",98 % of control
same,T/C,"dose: 400.0 mg/kg/injection, schedule: Q04DX002 (ip), vehicle: Klucel (hydroxypropylcellulose) (HPC)",104 % of control
CN1CC(=O)NC2C=CN(Cc3c(Cl)cccc3Cl)C=C2C1=O (configuration not stated),T/C,[16],89 % of control and 90 % of control
same,T/C,[17],88 % of control
same,T/C,[18],87 % of control and 90 % of control
CCOC(=O)c1ccc(NC(=O)Oc2cc(=O)oc3ccccc23)cc1,T/C,[16],91 % of control
same,T/C,[17],94 % of control
same,T/C,[18],99 % of control
